Laboratory results as given in publication PMC6429263, “Evolution and Antibacterial Evaluation of 8-Hydroxy-cycloberberine Derivatives as a Novel Family of Antibacterial Agents Against MRSA” (Molecules, 2019).

What was measured:
[1] = Stability in liver microsomes, rat; type: in vitro ADME, SD rat
Experimental: (§1) The assay was performed with liver microsomes from CD-1 mouse, SD rat and human. Microsomes in 100 mM potassium phosphate buffer (0.5 mg/mL microsomal protein), cofactor MgCl2 (10 mM), tested compound (1 μM, cosolvent (0.01% DMSO), 0.99% CH3OH), and then NADPH (1 mM) at 37 °C for 60 min. The reaction can be started by the addition of liver microsomes or the tested compound or NADPH. Aliquots were sampled at 0, 5, 10, 20, 30 and 60 min incubation, and enzymatic reaction was stopped by protein precipitation in cold acetonitrile including 100 ng/mL tolbutamide and 100 ng/mL labetalol as internal standard. After centrifugation, samples were then analyzed by LC/MS/MS [26].

[2] = Stability in liver microsomes, mouse; type: in vitro ADME, CD-1 mouse
Experimental: as §1

[3] = Stability in liver microsomes, human; type: in vitro ADME
Experimental: as §1, with “Microsomes in 100 mM potassium phosphate buffer (0.5 mg/mL microsomal protein), cofactor MgCl2 (10 mM), tested compound (1 μM, cosolvent (0.01% DMSO), 0.99% CH3OH), and then NADPH (1 mM) at 37 °C for 60 min.” left out

MRSA 13-18 = assay: MIC, agar dilution, MRSA 13-18; type: cell-based; conditions: Staphylococcus aureus; MRSA 13-18; read-out: MIC
MSSE ATCC 12228 = assay: MIC, agar dilution, MSSE ATCC 12228; type: cell-based, S. epidermidis; conditions: Staphylococcus epidermidis, ATCC12228; MSSE ATCC 12228; read-out: MIC
S.s ATCC 15305 = assay: MIC, agar dilution, S.s ATCC 15305; type: cell-based; conditions: Staphylococcus saprophyticus, ATCC15305; S. saprophyticus ATCC 15305; read-out: MIC
MRSE 13-3 = assay: MIC, agar dilution, MRSE 13-3; type: cell-based, S. epidermidis; conditions: Staphylococcus epidermidis; MRSE 13-3; read-out: MIC
MSSA 15 = assay: MIC, agar dilution, MSSA 15 (clinical isolate); type: cell-based, S. aureus; conditions: Staphylococcus aureus; MSSA 15, isolated from patients in China; read-out: MIC
MRSE 16-5 = assay: MIC, agar dilution, MRSE 16-5; type: cell-based, S. epidermidis; conditions: Staphylococcus epidermidis; MRSE 16-5; read-out: MIC
MRSA ATCC-B AA-1708 = assay: MIC, agar dilution, MRSA ATCC-BAA-1708 (mupA positive); type: cell-based; conditions: Staphylococcus aureus; MRSA ATCC-BAA-1708, mupA positive (mupirocin resistance); read-out: MIC
MRSA ATCC 43300 = assay: MIC, agar dilution, MRSA ATCC 43300; type: cell-based; conditions: Staphylococcus aureus; MRSA ATCC 43300; read-out: MIC
MSSE 16-5 = assay: MIC, agar dilution, MSSE 16-5 (clinical isolate); type: cell-based, S. epidermidis; conditions: Staphylococcus epidermidis; MSSE 16-5, isolated from patients in China; read-out: MIC
MSSA/MRSA tested strains = tested on: MSSA/MRSA tested strains; set-up: method as in PMID 29795764, PMID 30145374; conditions: cited from earlier work
VISA ATCC 700698 = assay: MIC, agar dilution, VISA ATCC 700698; type: cell-based; conditions: Staphylococcus aureus; VISA ATCC 700698; read-out: MIC
MSSA 16-1 = assay: MIC, agar dilution, MSSA 16-1 (clinical isolate); type: cell-based, S. aureus; conditions: Staphylococcus aureus; MSSA 16-1, isolated from patients in China; read-out: MIC
S.h ATCC 35982 = assay: MIC, agar dilution, S.h ATCC 35982; type: cell-based; conditions: Staphylococcus hominis, ATCC35982; S. hominis ATCC 35982; read-out: MIC
MRSA ATCC -BAA-976 = assay: MIC, agar dilution, MRSA ATCC-BAA-976 (clindamycin-resistant); type: cell-based; conditions: Staphylococcus aureus; MRSA ATCC-BAA-976, clindamycin-resistant S. aureus; read-out: MIC
VISA ATCC 700699 = assay: MIC, agar dilution, VISA ATCC 700699; type: cell-based; conditions: Staphylococcus aureus; VISA ATCC 700699; read-out: MIC
MRSA 16-34 = assay: MIC, agar dilution, MRSA 16-34; type: cell-based; conditions: Staphylococcus aureus; MRSA 16-34; read-out: MIC
MSSA ATCC 29213 = assay: MIC, agar dilution, MSSA ATCC 29213; type: cell-based, S. aureus; conditions: Staphylococcus aureus; MSSA ATCC 29213; read-out: MIC
MRSA 13-23 = assay: MIC, agar dilution, MRSA 13-23; type: cell-based; conditions: Staphylococcus aureus; MRSA 13-23; read-out: MIC

C[C@]12CC[C@H]3[C@@H](CCC4=CC(=O)CC[C@@]43C)[C@@H]1CC[C@@H]2O [Tes, testosterone, reference compound]
Remaining Ratio (T = 60 min) ([1]; 60 min): 0% | half-life at 1 μM ([1]; SD, 1 μM): 0.6 min | microsomal CLint at 1 μM ([1]; SD, 1 μM, read-out: CL Int (mic)): 2350 µL/min/mg | Remaining Ratio (T = 60 min) ([2]; 60 min): 0% | half-life at 1 μM ([2]; CD-1, 1 μM): 5.5 min | microsomal CLint at 1 μM ([2]; CD-1, 1 μM, read-out: CL Int (mic)): 254 µL/min/mg | half-life at 1 μM ([3]; 1 μM): 12.9 min | Remaining Ratio (T = 60 min) ([3]; 60 min): 3.9%

COc1ccc2c(c[n+]3c4c2ccc2c5c(cc(c24)CC3)OCO5)c1OC [CBBR, cycloberberine]
MIC (MRSA 13-18): > 64 µg/mL | MIC (MSSE ATCC 12228): > 64 µg/mL | MIC (S.s ATCC 15305): > 64 µg/mL | MIC (MRSE 13-3): > 64 µg/mL | MIC (MSSA 15): > 64 µg/mL | MIC (MRSE 16-5): > 64 µg/mL | MIC (MRSA ATCC-B AA-1708): > 64 µg/mL | MIC (MRSA ATCC 43300): > 64 µg/mL | MIC (MSSE 16-5): > 64 µg/mL | bactericidal activity (MSSA/MRSA tested strains; MSSA/MRSA): no bactericidal activity at all | MICs (range over strains) (MSSA/MRSA tested strains; tested strains such as MRSA): > 64 µg/mL | MIC (VISA ATCC 700698): > 64 µg/mL | MIC (MSSA 16-1): > 64 µg/mL | MIC (S.h ATCC 35982): > 64 µg/mL | MIC (MRSA ATCC -BAA-976): > 64 µg/mL | MIC (VISA ATCC 700699): > 64 µg/mL | MIC (MRSA 16-34): > 64 µg/mL | MIC (MSSA ATCC 29213): > 64 µg/mL | MIC (MRSA 13-23): > 64 µg/mL
